Series [1] can be described thus: Histimine (% vs. 48/40).
Series [2] addresses T1, APJ receptor (Homo sapiens, UniProt P35414).
T1 construct: expressed in transfected cells; host or cells: Human TRex cells (doxycycline-inducible)
T1 sequence (P35414 1-380): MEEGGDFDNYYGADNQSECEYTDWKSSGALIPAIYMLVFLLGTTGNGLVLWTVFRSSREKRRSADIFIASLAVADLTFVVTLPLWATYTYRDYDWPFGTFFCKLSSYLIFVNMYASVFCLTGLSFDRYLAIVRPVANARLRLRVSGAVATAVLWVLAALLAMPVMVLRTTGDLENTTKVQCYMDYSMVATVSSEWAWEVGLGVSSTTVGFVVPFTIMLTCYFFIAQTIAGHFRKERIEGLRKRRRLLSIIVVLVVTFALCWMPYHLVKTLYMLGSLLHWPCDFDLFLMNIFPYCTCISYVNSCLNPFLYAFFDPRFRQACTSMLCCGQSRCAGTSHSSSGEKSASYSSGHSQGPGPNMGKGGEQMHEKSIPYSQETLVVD
The series is described as follows: HTRF cAMP assay, inhibition of NKH477 stimulated cAMP in Human TRex cells expressing APJ upon doxycycline induction (APJ-hTREX). In kind it is cell-based. As to conditions: for percent intrinsic activity at 0.3 µM: read-out: % IA (@ 300 nM); for Ranking: class combining EC50 and % histamine. The text has this: HTRF (homogeneous time resolved fluorescence) is a technology developed by Cisbio Bioassays based on TR-FRET (time-resolved fluorescence resonance energy transfer). Cisbio Bioassays has developed a wide selection of HTRF-based assays compatible with whole cells, thereby enabling functional assays to run under more physiological conditions. The IP-One assays are competitive immunoassays using cryptate-labeled anti-IP1 monoclonal antibody and d2-labeled IP1. IP1 is a relatively stable downstream metabolite of IP3, and accumulates in cells following Gq receptor activation.
cAMP kits based on a competitive immunoassay using cryptate-labeled anti-cAMP antibody and d2-labeled cAMP were used to assay the effects of APJ compounds of the present invention. […] Cells are treated with […] doxycycline and seeded in all white 96 well plates @ 40 k/well overnight.

Where two headings read alike, the source gives them in different places. Where a SMILES comes first, the peptide text is derived from it. [ ]: non-standard residue; d: D form. The star is where a group is joined. Palmitoyl = CCCCCCCCCCCCCCCC(=O)*

We go through twelve compounds from patent US20150011466A1, “APJ Receptor Compounds” (priority 2012, published 2015).

In the case of `CCCCCCCCCCCCCCCC(=O)N[C@H](C(=O)N[C@H](C(=O)N[C@@H](Cc1ccccc1)C(=O)N[C@@H](CCCNC(=N)N)C(=O)N[C@@H](CO)C(=O)N[C@@H](CO)C(=O)N[C@@H](CCC(=O)O)C(=O)N[C@H](CCCCN)C(=O)N[C@@H](CCCNC(=N)N)C(=O)N[C@@H](CCCNC(=N)N)C(=O)N[C@@H](CO)C(=O)N[C@@H](C)C(=O)N[C@@H](CC(=O)O)C(=O)N[C@H](C(=O)N[C@@H](Cc1ccccc1)C(=O)N[C@@H](Cc1c[nH]cn1)C(N)=O)[C@@H](C)CC)C(C)C)[C@@H](C)O` [Compound 19] (Palmitoyl-TVFRSSE[dK]RRSADIFH-NH2), in series [1], the “Histimine (% vs. 48/40)” value is reported as 104%. The percent intrinsic activity at 0.3 µM in series [2] was found to be 53%. For orientation: EC50 means the concentration giving half of the maximal effect. On to `CCCCCCCCCCCCCCCC(=O)N[C@H](C(=O)N[C@H](C(=O)N[C@@H](Cc1ccccc1)C(=O)N[C@@H](CCCNC(=N)N)C(=O)N[C@@H](CO)C(=O)N[C@@H](CO)C(=O)N[C@@H](CCC(=O)O)C(=O)N[C@H](CCCCN)C(=O)N[C@@H](CCCNC(=N)N)C(=O)N[C@@H](CCCNC(=N)N)C(=O)N[C@@H](CO)C(=O)N[C@@H](C)C(=O)N[C@@H](CC(=O)O)C(=O)N[C@H](C(=O)N[C@@H](Cc1ccccc1)C(=O)N[C@@H](Cc1ccccc1)C(N)=O)[C@@H](C)CC)C(C)C)[C@@H](C)O` [Compound 6] (Palmitoyl-TVFRSSE[dK]RRSADIFF-NH2; C-terminus assumed), for which, in series [1], the “Histimine (% vs. 48/40)” value is listed as 70%. Also, in series [2], the Ranking entry was “*** (EC50<100 nM and % histamine>35%)”; the percent intrinsic activity at 0.3 µM is 76%. Also, the 50% effective concentration (EC50) in series [2] (inhibition of NKH477 stimulated cAMP, APJ-hTREX cells, read-out: APJ-hTREX EC50) was found to be 49.2 nM. In the case of `CCCCCCCCCCCCCCCC(=O)N[C@H](C(=O)NCC(=O)N[C@@H](Cc1ccccc1)C(=O)N[C@@H](CCCNC(=N)N)C(=O)N[C@@H](CO)C(=O)N[C@@H](CO)C(=O)N[C@@H](CCC(=O)O)C(=O)N[C@H](CCCCN)C(=O)N[C@@H](CCCNC(=N)N)C(=O)N[C@@H](CCCNC(=N)N)C(=O)N[C@@H](CO)C(=O)N[C@@H](C)C(=O)N[C@@H](CC(=O)O)C(=O)N[C@H](C(=O)N[C@@H](Cc1ccccc1)C(=O)N[C@H](C(N)=O)[C@@H](C)CC)[C@@H](C)CC)[C@@H](C)O` [Compound 69] (Palmitoyl-TGFRSSE[dK]RRSADIFI-NH2; C-terminus assumed), in series [1], the “Histimine (% vs. 48/40)” value is on record as 50%. In series [2], the concentration for a half-maximal effect (EC50) came out at 38.1 nM; the Ranking result was “*** (EC50<100 nM and % histamine>35%)”; the percent intrinsic activity at 0.3 µM is 77%. Take `CCCCCCCCCCCCCCCC(=O)N[C@H](C(=O)N[C@H](C(=O)N[C@@H](Cc1ccccc1)C(=O)N[C@@H](CCCNC(=N)N)C(=O)N[C@@H](CO)C(=O)N[C@@H](CO)C(=O)N[C@@H](CCC(=O)O)C(=O)N[C@H](CCCCN)C(=O)N[C@@H](CCCNC(=N)N)C(=O)N[C@@H](CCCNC(=N)N)C(=O)N1CCC[C@H]1C(=O)N[C@@H](C)C(=O)N[C@@H](CC(=O)O)C(=O)N[C@H](C(=O)N[C@@H](Cc1ccccc1)C(=O)N[C@H](C(N)=O)[C@@H](C)CC)[C@@H](C)CC)C(C)C)[C@@H](C)O` [Compound 51] (Palmitoyl-TVFRSSE[dK]RRPADIFI-NH2): in series [1], the “Histimine (% vs. 48/40)” value is reported as 63%. Moreover, the percent intrinsic activity at 0.3 µM in series [2] came out at 60%.

As to `CCCCCCCCCCCCCCCC(=O)N[C@H](C(=O)N[C@H](C(=O)N[C@@H](Cc1ccccc1)C(=O)N[C@@H](CCCNC(=N)N)C(=O)N[C@@H](CO)C(=O)N[C@@H](CO)C(=O)N[C@@H](CCC(=O)O)C(=O)N[C@H](CCCCN)C(=O)N[C@@H](CCCNC(=N)N)C(=O)N[C@@H](CCCNC(=N)N)C(=O)NCC(=O)N[C@@H](C)C(=O)N[C@@H](CC(=O)O)C(=O)N[C@H](C(=O)N[C@@H](Cc1ccccc1)C(=O)N[C@H](C(N)=O)[C@@H](C)CC)[C@@H](C)CC)C(C)C)[C@@H](C)O` [Compound 77] (Palmitoyl-TVFRSSE[dK]RRGADIFI-NH2), in series [1], the “Histimine (% vs. 48/40)” value was 53%. Further, in series [2], the percent intrinsic activity at 0.3 µM is 64%. In the case of `CCCCCCCCCCCCCCCC(=O)N[C@H](C(=O)N[C@H](C(=O)N[C@@H](Cc1ccccc1)C(=O)N[C@@H](CCCNC(=N)N)C(=O)N1CCC[C@H]1C(=O)N[C@@H](CO)C(=O)N[C@@H](CCC(=O)O)C(=O)N[C@H](CCCCN)C(=O)N[C@@H](CCCNC(=N)N)C(=O)N[C@@H](CCCNC(=N)N)C(=O)N[C@@H](CO)C(=O)N[C@@H](C)C(=O)N[C@@H](CC(=O)O)C(=O)N[C@H](C(=O)N[C@@H](Cc1ccccc1)C(=O)N[C@H](C(N)=O)[C@@H](C)CC)[C@@H](C)CC)C(C)C)[C@@H](C)O` [Compound 45] (Palmitoyl-TVFRPSE[dK]RRSADIFI-NH2), the percent intrinsic activity at 0.3 µM in series [2] turned out to be 70%.

Regarding `CCCCCCCCCCCCCCCC(=O)N[C@H](C(=O)N[C@H](C(=O)N[C@@H](Cc1ccccc1)C(=O)N[C@@H](Cc1c[nH]cn1)C(=O)N[C@@H](CO)C(=O)N[C@@H](CO)C(=O)N[C@@H](CCC(=O)O)C(=O)N[C@H](CCCCN)C(=O)N[C@@H](CCCNC(=N)N)C(=O)N[C@@H](CCCNC(=N)N)C(=O)N[C@@H](CO)C(=O)N[C@@H](C)C(=O)N[C@@H](CC(=O)O)C(=O)N[C@H](C(=O)N[C@@H](Cc1ccccc1)C(=O)N[C@H](C(N)=O)[C@@H](C)CC)[C@@H](C)CC)C(C)C)[C@@H](C)O` [Compound 10] (Palmitoyl-TVFHSSE[dK]RRSADIFI-NH2), the percent intrinsic activity at 0.3 µM in series [2] was determined as 55%. Consider `CCCCCCCCCCCCCCCC(=O)N[C@H](C(=O)N[C@H](C(=O)N[C@@H](Cc1ccccc1)C(=O)N[C@@H](CCCNC(=N)N)C(=O)N[C@@H](CC(=O)O)C(=O)N[C@@H](CO)C(=O)N[C@@H](CCC(=O)O)C(=O)N[C@H](CCCCN)C(=O)N[C@@H](CCCNC(=N)N)C(=O)N[C@@H](CCCNC(=N)N)C(=O)N[C@@H](CO)C(=O)N[C@@H](C)C(=O)N[C@@H](CC(=O)O)C(=O)N[C@H](C(=O)N[C@@H](Cc1ccccc1)C(=O)N[C@H](C(N)=O)[C@@H](C)CC)[C@@H](C)CC)C(C)C)[C@@H](C)O` [Compound 36] (Palmitoyl-TVFRDSE[dK]RRSADIFI-NH2), for which the percent intrinsic activity at 0.3 µM in series [2] was found to be 49%. Same read-out and setting: to `CCCCCCCCCCCCCCCC(=O)N[C@H](C(=O)N[C@H](C(=O)N[C@@H](Cc1ccccc1)C(=O)N[C@@H](CCCNC(=N)N)C(=O)N[C@@H](CO)C(=O)N[C@@H](CO)C(=O)N[C@@H](Cc1c[nH]cn1)C(=O)N[C@H](CCCCN)C(=O)N[C@@H](CCCNC(=N)N)C(=O)N[C@@H](CCCNC(=N)N)C(=O)N[C@@H](CO)C(=O)N[C@@H](C)C(=O)N[C@@H](CC(=O)O)C(=O)N[C@H](C(=O)N[C@@H](Cc1ccccc1)C(=O)N[C@H](C(N)=O)[C@@H](C)CC)[C@@H](C)CC)C(C)C)[C@@H](C)O` [Compound 12] (Palmitoyl-TVFRSSH[dK]RRSADIFI-NH2) belongs 73%.

On to `CCCCCCCCCCCCCCCC(=O)N[C@H](C(=O)N[C@H](C(=O)N[C@@H](Cc1ccccc1)C(=O)N[C@@H](CCC(N)=O)C(=O)N[C@@H](CO)C(=O)N[C@@H](CO)C(=O)N[C@@H](CCC(=O)O)C(=O)N[C@H](CCCCN)C(=O)N[C@@H](CCCNC(=N)N)C(=O)N[C@@H](CCCNC(=N)N)C(=O)N[C@@H](CO)C(=O)N[C@@H](C)C(=O)N[C@@H](CC(=O)O)C(=O)N[C@H](C(=O)N[C@@H](Cc1ccccc1)C(=O)N[C@H](C(N)=O)[C@@H](C)CC)[C@@H](C)CC)C(C)C)[C@@H](C)O` [Compound 22] (Palmitoyl-TVFQSSE[dK]RRSADIFI-NH2), for which the percent intrinsic activity at 0.3 µM in series [2] turned out to be 59%.

Turning to `CCCCCCCCCCCCCCCC(=O)N[C@@H](Cc1c[nH]cn1)C(=O)N[C@H](C(=O)N[C@@H](Cc1ccccc1)C(=O)N[C@@H](CCCNC(=N)N)C(=O)N[C@@H](CO)C(=O)N[C@@H](CO)C(=O)N[C@@H](CCC(=O)O)C(=O)N[C@H](CCCCN)C(=O)N[C@@H](CCCNC(=N)N)C(=O)N[C@@H](CCCNC(=N)N)C(=O)N[C@@H](CO)C(=O)N[C@@H](C)C(=O)N[C@@H](CC(=O)O)C(=O)N[C@H](C(=O)N[C@@H](Cc1ccccc1)C(=O)N[C@H](C(N)=O)[C@@H](C)CC)[C@@H](C)CC)C(C)C` [Compound 7] (Palmitoyl-HVFRSSE[dK]RRSADIFI-NH2), in series [2], the percent intrinsic activity at 0.3 µM amounted to 50%.

Regarding `CCCCCCCCCCCCCCCC(=O)N[C@H](C(=O)N1CCC[C@H]1C(=O)N[C@@H](Cc1ccccc1)C(=O)N[C@@H](CCCNC(=N)N)C(=O)N[C@@H](CO)C(=O)N[C@@H](CO)C(=O)N[C@@H](CCC(=O)O)C(=O)N[C@H](CCCCN)C(=O)N[C@@H](CCCNC(=N)N)C(=O)N[C@@H](CCCNC(=N)N)C(=O)N[C@@H](CO)C(=O)N[C@@H](C)C(=O)N[C@@H](CC(=O)O)C(=O)N[C@H](C(=O)N[C@@H](Cc1ccccc1)C(=O)N[C@H](C(N)=O)[C@@H](C)CC)[C@@H](C)CC)[C@@H](C)O` [Compound 43] (Palmitoyl-TPFRSSE[dK]RRSADIFI-NH2), the percent intrinsic activity at 0.3 µM in series [2] was determined as 39%.
